Measured values reported in patent US20260234107A1, “TRYPTAMINES AND METHODS OF TREATING MOOD DISORDERS” (priority 2022, published 2026).
pEC50: −log10 of the molar value. Read-outs that look alike come from different tables or passages of the source.

Tests used:
5-HT1A = target: T1, 5-HT1A (Homo sapiens, UniProt P08908); assay: FLIPR Ca2+ flux agonist assay at 5-HT1A; type: cell-based; details: for 5-HT1A % Act @ Max Dose: Ca2+ flux, CHO cells
T1 construct: host or cells: CHO cells
T1 sequence (P08908 1-422): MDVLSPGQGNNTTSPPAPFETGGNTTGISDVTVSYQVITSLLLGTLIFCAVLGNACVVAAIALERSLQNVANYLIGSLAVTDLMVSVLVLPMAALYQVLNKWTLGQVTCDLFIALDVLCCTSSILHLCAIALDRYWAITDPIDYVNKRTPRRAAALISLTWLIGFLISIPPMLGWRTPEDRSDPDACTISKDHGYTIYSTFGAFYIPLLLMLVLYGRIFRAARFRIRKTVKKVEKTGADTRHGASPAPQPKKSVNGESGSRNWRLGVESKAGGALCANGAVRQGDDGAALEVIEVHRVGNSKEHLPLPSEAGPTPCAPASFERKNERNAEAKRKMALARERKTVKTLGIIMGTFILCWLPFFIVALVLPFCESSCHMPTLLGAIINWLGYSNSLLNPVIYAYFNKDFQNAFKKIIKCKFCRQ
Procedure: (§1) A solution of 250 mM probenecid in 1 mL FLIPR assay buffer was prepared fresh. This was combined with a fluorescent dye (Fluo-4 Direct™) to make a final assay concentration of 2.5 mM. […] The fluorescent dye was then added to the assay plate along with assay buffer to a final volume of 40 μL. The cell plate was incubated for 50 min at 37° C. and 5% CO2 and placed into the FLIPR Tetra along with the compound plate. 10 μL of references and compounds were then transferred from the compound plate into the cell plate and the fluorescent signal was read.

5-HT2A = 5-HT2A (Homo sapiens, UniProt P28223); assay: FLIPR Ca2+ flux agonist assay at 5-HT2A; type: cell-based; parameters: host or cells: HEK293; details: for 5-HT2A % Act @ Max Dose: HEK293, max dose
Procedure: as §1

[1] = Metabolic stability in human liver microsomes (HLM); parameters: microsomal CLint / half-life: dose or concentration left out as unconfirmed; details: both, human, pooled human liver microsomes, pH 7.4
[2] = tested on: monoamine oxidase A and B (MAO-A and MAO-B); assay: Stability in the presence of monoamine oxidases (human liver mitochondria preparation); parameters: half-life / microsomal CLint: dose or concentration left out as unconfirmed; details: human liver mitochondria; for half-life / microsomal CLint: human, pH 7.4
Procedure: Liver Mitochondria Incubations. Human liver mitochondria (Xenotech H0610.M) were used.

5-HT2B = target: T2, 5-HT2B (Homo sapiens, UniProt P41595); assay: FLIPR Ca2+ flux agonist assay at 5-HT2B; type: cell-based; details: for 5-HT2B % Act @ Max Dose: Ca2+ flux, HEK293, max dose
T2 construct: host or cells: HEK293
Procedure: as §1

[3] = Stability in rat brain homogenate; type: in vitro ADME, male Sprague Dawley rats; details: rat brain homogenate, 1 μM, 37° C.; for half-life at 1 µM: male, Sprague Dawley
Procedure: Disclosed compounds were tested for stability in rat brain homogenate (Table 8). There was widely variable stability among the test compounds under the conditions of the experiment.
(§2) Rat Brain Homogenate Stability. Frozen rat brain homogenate (pooled from male Sprague Dawley rats, BioreclamationIVT, RAT00BRAINMZA) was thawed in a water bath at 37° C. immediately prior to use. Positive controls and test compounds (final concentration in incubation medium=1 μM for test compounds and 2 μM for controls, all with 2% DMSO) were incubated in duplicate for each time point (0, 10, 30, 60, and 120 min) in the rat brain homogenate at a total reaction volume of 100 μL at 37° C. At the end of each incubation period, reactions were immediately quenched with 400 μL of acetonitrile containing internal standard (200 ng/mL tolbutamine and 200 ng/mL labetalol) and mixed thoroughly. Plates were then sealed, shaken for 20 min, and centrifuged at 4,000 rpm and 4° C. for 20 min. Aliquots of 50 μL of each supernatant were diluted into 100 μL of water and the mixtures were then shaken again for 10 min.

[4] = Stability in mouse brain homogenate; type: in vitro ADME, male CD-1 mice; details: mouse brain homogenate, 1 μM, 37° C.; for half-life at 1 µM: male, CD-1
Procedure: Disclosed compounds were tested for stability in mouse brain homogenate (Table 7). There was widely variable stability among the test compounds under the conditions of the experiment.
as §2, with “Mouse Brain” for “Rat Brain”, “Frozen mouse” for “Frozen rat”, “male CD-1 mice,” for “male Sprague Dawley rats,”, “BioreclamationIVT, MSE00BRAINMZA)” for “BioreclamationIVT, RAT00BRAINMZA)”, “the mouse” for “the rat”

Chain of 5-HT2A (P28223 whole entry): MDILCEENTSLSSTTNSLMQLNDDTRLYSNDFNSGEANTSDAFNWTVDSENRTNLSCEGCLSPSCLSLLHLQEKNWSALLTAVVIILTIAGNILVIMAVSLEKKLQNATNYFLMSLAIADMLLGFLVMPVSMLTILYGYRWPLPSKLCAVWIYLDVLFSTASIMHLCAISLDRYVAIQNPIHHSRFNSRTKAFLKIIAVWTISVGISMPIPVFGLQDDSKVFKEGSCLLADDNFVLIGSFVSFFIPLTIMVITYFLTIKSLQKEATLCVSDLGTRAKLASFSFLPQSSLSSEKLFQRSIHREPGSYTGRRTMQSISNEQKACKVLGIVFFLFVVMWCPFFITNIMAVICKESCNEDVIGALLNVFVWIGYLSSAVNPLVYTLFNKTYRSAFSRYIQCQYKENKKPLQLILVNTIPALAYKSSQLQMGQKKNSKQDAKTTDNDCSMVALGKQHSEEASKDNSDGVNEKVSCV
T2 sequence (P41595 whole entry, species assumed): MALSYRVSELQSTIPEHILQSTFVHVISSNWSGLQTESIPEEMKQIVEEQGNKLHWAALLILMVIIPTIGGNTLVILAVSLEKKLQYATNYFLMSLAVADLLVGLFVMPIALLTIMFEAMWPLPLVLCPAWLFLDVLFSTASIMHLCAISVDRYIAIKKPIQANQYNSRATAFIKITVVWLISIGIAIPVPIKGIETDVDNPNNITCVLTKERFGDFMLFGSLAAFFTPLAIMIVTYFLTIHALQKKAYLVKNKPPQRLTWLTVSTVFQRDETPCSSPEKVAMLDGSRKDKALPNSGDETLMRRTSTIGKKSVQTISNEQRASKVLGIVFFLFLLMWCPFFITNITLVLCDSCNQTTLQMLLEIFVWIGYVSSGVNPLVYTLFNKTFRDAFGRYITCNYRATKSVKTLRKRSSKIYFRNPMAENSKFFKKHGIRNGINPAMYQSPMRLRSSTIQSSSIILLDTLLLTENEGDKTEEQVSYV

| SMILES | 5-HT1A % Act @ Max Dose (5-HT1A) [%] | pEC50 (5-HT2A) | 5-HT2A % Act @ Max Dose (5-HT2A; Ca2+ flux) [%] | half-life [1] [min] | microsomal CLint [1] [µL/min/mg] | Remaining (t = 60 min) [2] [%] | half-life [2] [min] | microsomal CLint [2] [µL/min/mg] | 5-HT2B % Act @ Max Dose (5-HT2B) [%] | half-life at 1 µM [3] [min] | % Compound Remaining (after 120 min) [3] [%] | half-life at 1 µM [4] [min] | % Compound Remaining (after 120 min) [4] [%] | pEC50 (5-HT1A) | pEC50 (5-HT2B) | pEC50 (5-HT2A; Ca2+ flux, HEK293, read-out: 5-HT2A EC50) |
| --- | --- | --- | --- | --- | --- | --- | --- | --- | --- | --- | --- | --- | --- | --- | --- | --- |
| CCNCCc1c[nH]c2cc(F)cc(O)c12 [Compound 29, 3-(2-(ethylamino)ethyl)-6-fluoro-1H-indol-4-ol] | 16.22 | 7.76 | 80.80 | > 145 | < 9.6 | 99.1 | > 145 | < 15.9 | 12.18 | 113 | 51.9 | 59.9 | 29.9 |  |  |  |
| CCCNCCc1c[nH]c2ccc(F)c(O)c12 [Compound 36, 5-fluoro-3-(2-(propylamino)ethyl)-1H-indol-4-ol] | 15.31 | 7.92 | 71.78 | 49.9 | 27.8 | 0.9 | 8.5 | 272 | 44.90 | 31 | 7.1 | 108 | 46.2 | < 4.00 | 7.58 |  |
| CNCCc1c[nH]c2cc(C)cc(O)c12 [Compound 39, 6-methyl-3-(2-(methylamino)ethyl)-1H-indol-4-ol] | 4.4 | 7.11 | 76.43 | 9.9 | 140 | 13.5 | 17.8 | 130 | 10.04 | 6.3 | 0.1 | 15.5 | 0.4 | < 4.00 | < 5.00 |  |
| CCNCCc1c[nH]c2ccc(C)c(O)c12 [Compound 37, 3-(2-(ethylamino)ethyl)-5-methyl-1H-indol-4-ol] | 64.6 | 7.25 | 91.0 | 86.8 | 16 | 65.1 | 88.7 | 26.1 | 16.28 | 14.1 | 0.2 | 69.9 | 31.3 | 5.16 | 6.56 |  |
| CNCCc1c[nH]c2c(F)ccc(O)c12 [Compound 34, 7-fluoro-3-(2-(methylamino)ethyl)-1H-indol-4-ol] | 36.72 | 7.79 | 77.43 | 6.6 | 209 | 6.4 | 15 | 154 | 8.09 | 3.6 | 0 | 21.7 | 1.6 | < 4.00 | < 5.00 |  |
| CNCCc1c[nH]c2cc(F)cc(O)c12 [Compound 33, 6-fluoro-3-(2-(methylamino)ethyl)-1H-indol-4-ol] | 3.51 |  |  | 10.1 | 138 | 14.3 | 20.2 | 114 | 31.76 | 9.1 | 0.4 | 16 | 0.6 | < 4.00 | 7.55 | 8.24 |
